Test results reported in patent US4508663A, “Process for preparing thiosulfenamide derivatives of N-phosphonomethylglycinonitriles” (Monsanto Company, priority 1983, dated 1985).

Legend:
Assay in all cases: post-emergence herbicidal activity, greenhouse
Type in all cases: in vivo
Lambsquarters = test system: Lambsquarters
Text: (§1) A good grade of top soil is placed in aluminum pans having holes in the bottom and compacted to a depth of 0.95 to 1.27 cm. from the top of the pan. A predetermined number of seeds of each of several dicotyledonous and monocotyledonous annual plant species and/or vegetative propagules for the perennial plant species are placed on the soil and pressed into the soil surface. The seeds and/or vegetative propagules are covered with soil and leveled. The pans are then placed on a sand bench in the greenhouse and watered from below as needed. After the plants reach the desired age (two to three weeks), each pan except for the control pans is removed individually to a spraying chamber and sprayed by means of an atomizer operating at a positive air pressure of approximately 1.46 kg/cm^2 absolute. The atomizer contains 6 ml. of a solution or suspension of the chemical. In that 6 ml., is an amount of a cyclohexanone emulsifying agent mixture to give a spray solution or suspension which contains about 0.4% by weight of the emulsifier. The spray solution or suspension contains a sufficient amount of the candidate chemical in order to give application rates corresponding to those set forth in the tables. The spray solution is prepared by taking an aliquot of a 1.0% by weight stock solution or suspension of the candidate chemical in an organic solvent such as acetone or tetrahydrofuran or in water. The emulsifying agent employed is a mixture comprising 35 weight percent butylamine dodecylbenzene sulfonate and 65 weight percent of a tall oil ethylene oxide condensate having about 11 moles of ethylene oxide per mole of tall oil. The pans are returned to the greenhouse and watered as before and the injury to the plants as compared to the control is observed at approximately two and four weeks as indicated in the tables under WAT and the results recorded. In some instances, the two-week observations are omitted.
(§2) The post-emergence herbicidal activity index used in Table I is as follows: […]

Morningglory = test system: Morningglory
Text: as §1, §2

Soybean = conditions: Table II
Text: as §1, §2

Crabgrass = conditions: Table II
Text: as §1, §2

Downy Brome = test system: Downy Brome
Text: as §1, §2

Johnsongrass = conditions: Table I, 4 WAT
Text: as §1, §2

Wheat = conditions: Table II
Text: as §1, §2

Rice = conditions: Table II
Text: as §1, §2

Hemp Sesbania = conditions: Table II
Text: as §1, §2

Panicum Spp = conditions: Table II
Text: as §1, §2

Cocklebur = test system: Cocklebur
Text: as §1, §2

Sorghum = conditions: Table II
Text: as §1, §2

Velvetleaf = test system: Velvetleaf
Text: as §1, §2

Smartweed = test system: Smartweed
Text: as §1, §2

Quackgrass = conditions: Table I, 4 WAT
Text: as §1, §2

Wild Buckwheat = conditions: Table II
Text: as §1, §2

Yellow Nutsedge = conditions: Table I, 4 WAT
Text: as §1, §2

Barnyardgrass = test system: Barnyardgrass
Text: as §1, §2

Sugar Beet = conditions: Table II
Text: as §1, §2

N#CCN(CP(=O)(Oc1ccccc1)Oc1ccccc1)SSCCc1ccccc1 [XII, Phosphonic acid, [[(cyanomethyl)[(2-phenylethyl)dithio]amino]methyl]-, diphenyl ester]
post-emergence herbicidal activity index (Lambsquarters; Table I, 4 WAT, 5.6 kg/h): 4 (100% control)
post-emergence herbicidal activity index (Lambsquarters; Table I, 4 WAT, 11.2 kg/h): 4 (100% control)
post-emergence herbicidal activity index (Lambsquarters; Table II, 2 WAT, 0.28 kg/h): 0 (0-24% control)
post-emergence herbicidal activity index (Lambsquarters; Table II, 4 WAT, 1.12 kg/h): 0 (0-24% control)
post-emergence herbicidal activity index (Lambsquarters; Table II, 4 WAT, 5.6 kg/h): 3 (75-99% control)
post-emergence herbicidal activity index (Morningglory; Table I, 4 WAT, 5.6 kg/h): 1 (25-49% control)
post-emergence herbicidal activity index (Morningglory; Table I, 4 WAT, 11.2 kg/h): 1 (25-49% control)
post-emergence herbicidal activity index (Morningglory; Table II, 2 WAT, 0.28 kg/h): 0 (0-24% control)
post-emergence herbicidal activity index (Morningglory; Table II, 4 WAT, 1.12 kg/h): 0 (0-24% control)
post-emergence herbicidal activity index (Morningglory; Table II, 4 WAT, 5.6 kg/h): 1 (25-49% control)
post-emergence herbicidal activity index (Soybean; 2 WAT, 0.28 kg/h): 0 (0-24% control)
post-emergence herbicidal activity index (Soybean; 4 WAT, 1.12 kg/h): 0 (0-24% control)
post-emergence herbicidal activity index (Soybean; 4 WAT, 5.6 kg/h): 1 (25-49% control)
post-emergence herbicidal activity index (Crabgrass; 2 WAT, 0.28 kg/h): 0 (0-24% control)
post-emergence herbicidal activity index (Crabgrass; 4 WAT, 1.12 kg/h): 0 (0-24% control)
post-emergence herbicidal activity index (Crabgrass; 4 WAT, 5.6 kg/h): 3 (75-99% control)
post-emergence herbicidal activity index (Downy Brome; Table I, 4 WAT, 5.6 kg/h): 0 (0-24% control)
post-emergence herbicidal activity index (Downy Brome; Table I, 4 WAT, 11.2 kg/h): 3 (75-99% control)
post-emergence herbicidal activity index (Downy Brome; Table II, 2 WAT, 0.28 kg/h): 0 (0-24% control)
post-emergence herbicidal activity index (Downy Brome; Table II, 4 WAT, 1.12 kg/h): 0 (0-24% control)
post-emergence herbicidal activity index (Downy Brome; Table II, 4 WAT, 5.6 kg/h): 2 (50-74% control)
post-emergence herbicidal activity index (Johnsongrass; 5.6 kg/h): 1 (25-49% control)
post-emergence herbicidal activity index (Johnsongrass; 11.2 kg/h): 4 (100% control)
post-emergence herbicidal activity index (Wheat; 2 WAT, 0.28 kg/h): 0 (0-24% control)
post-emergence herbicidal activity index (Wheat; 4 WAT, 1.12 kg/h): 0 (0-24% control)
post-emergence herbicidal activity index (Wheat; 4 WAT, 5.6 kg/h): 1 (25-49% control)
post-emergence herbicidal activity index (Rice; 2 WAT, 0.28 kg/h): 0 (0-24% control)
post-emergence herbicidal activity index (Rice; 4 WAT, 1.12 kg/h): 0 (0-24% control)
post-emergence herbicidal activity index (Rice; 4 WAT, 5.6 kg/h): 0 (0-24% control)
post-emergence herbicidal activity index (Hemp Sesbania; 2 WAT, 0.28 kg/h): 0 (0-24% control)
post-emergence herbicidal activity index (Hemp Sesbania; 4 WAT, 1.12 kg/h): 0 (0-24% control)
post-emergence herbicidal activity index (Hemp Sesbania; 4 WAT, 5.6 kg/h): 1 (25-49% control)
post-emergence herbicidal activity index (Panicum Spp; 2 WAT, 0.28 kg/h): 0 (0-24% control)
post-emergence herbicidal activity index (Panicum Spp; 4 WAT, 1.12 kg/h): 0 (0-24% control)
post-emergence herbicidal activity index (Panicum Spp; 4 WAT, 5.6 kg/h): 1 (25-49% control)
post-emergence herbicidal activity index (Cocklebur; Table I, 4 WAT, 5.6 kg/h): 2 (50-74% control)
post-emergence herbicidal activity index (Cocklebur; Table I, 4 WAT, 11.2 kg/h): 4 (100% control)
post-emergence herbicidal activity index (Cocklebur; Table II, 2 WAT, 0.28 kg/h): 0 (0-24% control)
post-emergence herbicidal activity index (Cocklebur; Table II, 4 WAT, 1.12 kg/h): 0 (0-24% control)
post-emergence herbicidal activity index (Cocklebur; Table II, 4 WAT, 5.6 kg/h): 2 (50-74% control)
post-emergence herbicidal activity index (Sorghum; 2 WAT, 0.28 kg/h): 0 (0-24% control)
post-emergence herbicidal activity index (Sorghum; 4 WAT, 1.12 kg/h): 1 (25-49% control)
post-emergence herbicidal activity index (Sorghum; 4 WAT, 5.6 kg/h): 3 (75-99% control)
post-emergence herbicidal activity index (Velvetleaf; Table I, 4 WAT, 5.6 kg/h): 0 (0-24% control)
post-emergence herbicidal activity index (Velvetleaf; Table I, 4 WAT, 11.2 kg/h): 2 (50-74% control)
post-emergence herbicidal activity index (Velvetleaf; Table II, 2 WAT, 0.28 kg/h): 0 (0-24% control)
post-emergence herbicidal activity index (Velvetleaf; Table II, 4 WAT, 1.12 kg/h): 0 (0-24% control)
post-emergence herbicidal activity index (Velvetleaf; Table II, 4 WAT, 5.6 kg/h): 2 (50-74% control)
post-emergence herbicidal activity index (Smartweed; Table I, 4 WAT, 5.6 kg/h): 0 (0-24% control)
post-emergence herbicidal activity index (Smartweed; Table I, 4 WAT, 11.2 kg/h): 3 (75-99% control)
post-emergence herbicidal activity index (Smartweed; Table II, 2 WAT, 0.28 kg/h): 0 (0-24% control)
post-emergence herbicidal activity index (Smartweed; Table II, 4 WAT, 1.12 kg/h): 0 (0-24% control)
post-emergence herbicidal activity index (Smartweed; Table II, 4 WAT, 5.6 kg/h): 2 (50-74% control)
post-emergence herbicidal activity index (Quackgrass; 5.6 kg/h): 0 (0-24% control)
post-emergence herbicidal activity index (Quackgrass; 11.2 kg/h): 3 (75-99% control)
post-emergence herbicidal activity index (Wild Buckwheat; 2 WAT, 0.28 kg/h): 0 (0-24% control)
post-emergence herbicidal activity index (Wild Buckwheat; 4 WAT, 1.12 kg/h): 0 (0-24% control)
post-emergence herbicidal activity index (Wild Buckwheat; 4 WAT, 5.6 kg/h): 2 (50-74% control)
post-emergence herbicidal activity index (Yellow Nutsedge; 5.6 kg/h): 2 (50-74% control)
post-emergence herbicidal activity index (Yellow Nutsedge; 11.2 kg/h): 2 (50-74% control)
post-emergence herbicidal activity index (Barnyardgrass; Table I, 4 WAT, 5.6 kg/h): 2 (50-74% control)
post-emergence herbicidal activity index (Barnyardgrass; Table I, 4 WAT, 11.2 kg/h): 2 (50-74% control)
post-emergence herbicidal activity index (Barnyardgrass; Table II, 2 WAT, 0.28 kg/h): 0 (0-24% control)
post-emergence herbicidal activity index (Barnyardgrass; Table II, 4 WAT, 1.12 kg/h): 0 (0-24% control)
post-emergence herbicidal activity index (Barnyardgrass; Table II, 4 WAT, 5.6 kg/h): 2 (50-74% control)
post-emergence herbicidal activity index (Sugar Beet; 2 WAT, 0.28 kg/h): 0 (0-24% control)
post-emergence herbicidal activity index (Sugar Beet; 4 WAT, 1.12 kg/h): 0 (0-24% control)
post-emergence herbicidal activity index (Sugar Beet; 4 WAT, 5.6 kg/h): 1 (25-49% control)
